In patent US11000033B2, “Ketone or oxime compound, and herbicide” (NISSAN CHEMICAL CORPORATION, priority 2014, dated 2021):

Columns and labels:
Format in all cases: in vivo
[1] = system: Avena fatua; assay: Test Example 5: herbicidal effect by foliage application, plastic box (symbol I); conditions: 320 g/ha, 3 weeks after application
How it was run: (§1)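 Greenhouse foliar test: seedlings at 14 days, grown 25° C. to 30° C. in sterilized diluvial soil; compound applied as an aqueous dilution of an emulsion; response read 3 weeks after spraying.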

[2] = system: Echinochloa crus-galli var. crus-galli; assay: Test Example 4: herbicidal effect by soil treatment (symbol H)
How it was run: (§2)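 Seeds were sown in sterilized diluvial soil, covered with about 1.5 cm of soil, and the soil surface was sprayed with a water-diluted emulsion of the compound at a predetermined rate. Plants grew in a greenhouse at 25° C. to 30° C.; effects were scored visually 3 weeks after application.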

[3] = system: rapeseed; assay: Test Example 4: effect on crop by soil treatment (symbol g)
How it was run: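 Diluvial soil (sterilized) in boxes; seeds placed spot-wise alongside weed species; ~1.5 cm covering soil. Greenhouse, 25–30° C.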

[4] = system: Amaranthus retroflexus; assay: Test Example 4: herbicidal effect by soil treatment (symbol N)
How it was run: as §2

[5] = system: Veronica persica; assay: Test Example 5: herbicidal effect by foliage application, plastic box (symbol R); conditions: 320 g/ha, 3 weeks after application
How it was run: as §1

[6] = system: Galium spurium; assay: Test Example 5: herbicidal effect by foliage application, plastic box (symbol Q); conditions: 320 g/ha, 3 weeks after application
How it was run: as §1

[7] = system: Abutilon theophrasti; assay: Test Example 5: herbicidal effect by foliage application, plastic box (symbol M); conditions: 320 g/ha, 3 weeks after application
How it was run: as §1

[8] = system: Apera spica-venti; assay: Test Example 5: herbicidal effect by foliage application, plastic box (symbol L); conditions: 320 g/ha, 3 weeks after application
How it was run: as §1

[9] = system: Galium spurium; assay: Test Example 4: herbicidal effect by soil treatment (symbol Q)
How it was run: as §2

[10] = system: Stellaria media; assay: Test Example 5: herbicidal effect by foliage application, plastic box (symbol P); conditions: 320 g/ha, 3 weeks after application
How it was run: as §1

[11] = system: Amaranthus retroflexus; assay: Test Example 5: herbicidal effect by foliage application, plastic box (symbol N); conditions: 320 g/ha, 3 weeks after application
How it was run: as §1

[12] = system: corn; assay: Test Example 4: effect on crop by soil treatment (symbol c)
How it was run: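 Soil-treatment setup: crop and weed seeds were spot-sown into sterilized diluvial soil, then buried beneath approximately 1.5 cm of it, and the boxes were housed in a 25–30° C. greenhouse.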

[13] = system: Cyperus difformis; assay: Test Example 3: herbicidal effect by foliage application, Wagner pot (symbol E); conditions: application herbicide amount 320 g/ha; for E herbicidal effect grade: Table 24
How it was run: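 In a shallow-flooded alluvial soil system held at 25–30 °C, plants including rice grew for 14 days and were then sprayed over the foliage with emulsion diluted to a fixed herbicide amount. Visual rating followed at 3 weeks.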

[14] = system: Echinochloa oryzacola Vasing.; assay: Test Example 1: herbicidal activity, application before weed generation in submerged conditions (symbol A); conditions: application herbicide amount 320 g/ha
How it was run: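 Weed control was rated three weeks after treatment on a 0–5 scale, from 5% or lower up to 90% or more. Pre-emergence water-surface application of diluted emulsion at a predetermined rate was made on the day of sowing, in flooded (4 cm water) pots containing rice seedlings, kept at 25–30 °C under glass.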

[15] = system: Scirpus juncoides; assay: Test Example 2: herbicidal activity, application during weed generation in submerged conditions (symbol B); conditions: Table 23; application herbicide amount 320 g/ha; grade 0-5 by criteria of Test Example 1
How it was run: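 Compound was applied as a water-diluted emulsion into the standing water of flooded pots (4 cm) once co-sown weeds reached one to two leaves. Greenhouse temperature was 25° C. to 30° C., soil was alluvial, and each species was rated visually after 3 weeks.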

[16] = system: Lolium multiflorum Lam.; assay: Test Example 5: herbicidal effect by foliage application, plastic box (symbol K); conditions: 320 g/ha, 3 weeks after application
How it was run: as §1

[17] = application herbicide amount 320 g/ha

| Compound | I: Avena fatua, herbicidal effect grade [1] | R: Veronica persica, herbicidal effect grade [5] | Q: Galium spurium, herbicidal effect grade [6] | M: Abutilon theophrasti, herbicidal effect grade [7] | L: Apera spica-venti, herbicidal effect grade [8] | P: Stellaria media, herbicidal effect grade [10] | N: Amaranthus retroflexus, herbicidal effect grade [11] | E herbicidal effect grade [13] | A (Echinochloa oryzacola Vasing.) herbicidal effect grade [14] | Herbicidal effect grade, B: Scirpus juncoides [15] | K: Lolium multiflorum Lam., herbicidal effect grade [16] | herbicidal effect on E, grade 0-5 [13] | Herbicidal effect grade, A: Echinochloa oryzacola Vasing. [14] | H: Echinochloa crus-galli var. crus-galli, herbicidal effect grade [2, 17] | g: rapeseed, effect on crop grade [3, 17] | N: Amaranthus retroflexus, herbicidal effect grade [4, 17] | Q: Galium spurium, herbicidal effect grade [9, 17] | c: corn, effect on crop grade [12, 17] | also measured |
| --- | --- | --- | --- | --- | --- | --- | --- | --- | --- | --- | --- | --- | --- | --- | --- | --- | --- | --- | --- |
| CC#Cc1cc(C)c(C2=C(O)CC(CC(=NOC)C(C)C)C2=O)c(C)c1 (stereo not shown) [9-006] | 4 (Herbicidal ratio of 70% or higher and lower than 90%) | 4 (Herbicidal ratio of 70% or higher and lower than 90%) | 0 (Herbicidal ratio of 5% or lower (almost no effect)) | 0 (Herbicidal ratio of 5% or lower (almost no effect)) | 5 (Herbicidal ratio of 90% or more (almost completely withered)) | 3 (Herbicidal ratio of 40% or higher and lower than 70%) | 0 (Herbicidal ratio of 5% or lower (almost no effect)) | 5 (Herbicidal ratio of 90% or more (almost completely withered)) | 5 (Herbicidal ratio of 90% or more (almost completely withered)) | 4 (Herbicidal ratio of 70% or higher and lower than 90%) | 5 (Herbicidal ratio of 90% or more (almost completely withered)) | – | – | – | – | – | – | – | Herbicidal effect grade, H: Echinochloa crus-galli var. crus-galli [2, 17]: 5 (Herbicidal ratio of 90% or more (almost completely withered)); Effect on crop grade, g: rapeseed [3, 17]: 3 (Herbicidal ratio of 40% or higher and lower than 70%); Herbicidal effect grade, N: Amaranthus retroflexus [4, 17]: 2 (Herbicidal ratio of 20% or higher and lower than 40%); Herbicidal effect grade, Q: Galium spurium [9, 17]: 0 (Herbicidal ratio of 5% or lower (almost no effect)); Effect on crop grade, c: corn [12, 17]: 5 (Herbicidal ratio of 90% or more (almost completely withered)) |
| CON=C(C)CC1CC(OC(=O)CSc2ccccc2)=C(c2c(C)cc(C)cc2C)C1=O (stereo not shown) [1-134] | – | – | – | – | – | – | – | – | – | 4 (Herbicidal ratio of 70% or higher and lower than 90%) | – | 5 (Herbicidal ratio of 90% or more (almost completely withered)) | 5 (Herbicidal ratio of 90% or more (almost completely withered)) | – | – | – | – | – | I: Avena fatua, herbicidal effect (criteria 0-5) [1]: 5 (Herbicidal ratio of 90% or more (almost completely withered)); H: Echinochloa crus-galli var. crus-galli, herbicidal effect grade ([2]; 320 g/ha): 5 (Herbicidal ratio of 90% or more (almost completely withered)); g: rapeseed, effect grade on crop ([3]; 320 g/ha): 0 (Herbicidal ratio of 5% or lower (almost no effect)); N: Amaranthus retroflexus, herbicidal effect grade ([4]; 320 g/ha): 4 (Herbicidal ratio of 70% or higher and lower than 90%); R: Veronica persica, herbicidal effect (criteria 0-5) [5]: 1 (Herbicidal ratio of 5% or higher and lower than 20%); Q: Galium spurium, herbicidal effect (criteria 0-5) [6]: 4 (Herbicidal ratio of 70% or higher and lower than 90%); M: Abutilon theophrasti, herbicidal effect (criteria 0-5) [7]: 2 (Herbicidal ratio of 20% or higher and lower than 40%); L: Apera spica-venti, herbicidal effect (criteria 0-5) [8]: 5 (Herbicidal ratio of 90% or more (almost completely withered)); Q: Galium spurium, herbicidal effect grade ([9]; 320 g/ha): 0 (Herbicidal ratio of 5% or lower (almost no effect)); P: Stellaria media, herbicidal effect (criteria 0-5) [10]: 2 (Herbicidal ratio of 20% or higher and lower than 40%); N: Amaranthus retroflexus, herbicidal effect (criteria 0-5) [11]: 1 (Herbicidal ratio of 5% or higher and lower than 20%); c: corn, effect grade on crop ([12]; 320 g/ha): 5 (Herbicidal ratio of 90% or more (almost completely withered)); K: Lolium multiflorum Lam., herbicidal effect (criteria 0-5) [16]: 5 (Herbicidal ratio of 90% or more (almost completely withered)) |
| CCC(CC1CC(O)=C(c2c(C)cc(C)cc2OC)C1=O)=NOC (mixture of isomers) [13-003] | 5 (Herbicidal ratio of 90% or more (almost completely withered)) | 1 (Herbicidal ratio of 5% or higher and lower than 20%) | 3 (Herbicidal ratio of 40% or higher and lower than 70%) | 4 (Herbicidal ratio of 70% or higher and lower than 90%) | 5 (Herbicidal ratio of 90% or more (almost completely withered)) | 1 (Herbicidal ratio of 5% or higher and lower than 20%) | 0 (Herbicidal ratio of 5% or lower (almost no effect)) | 5 (Herbicidal ratio of 90% or more (almost completely withered)) | 5 (Herbicidal ratio of 90% or more (almost completely withered)) | 4 (Herbicidal ratio of 70% or higher and lower than 90%) | 5 (Herbicidal ratio of 90% or more (almost completely withered)) | – | – | 5 (Herbicidal ratio of 90% or more (almost completely withered)) | 3 (Herbicidal ratio of 40% or higher and lower than 70%) | 0 (Herbicidal ratio of 5% or lower (almost no effect)) | 0 (Herbicidal ratio of 5% or lower (almost no effect)) | 5 (Herbicidal ratio of 90% or more (almost completely withered)) | – |
| CON=C(CC1CC(OC(=O)N2CCOCC2)=C(c2c(C)cc(C)cc2OC)C1=O)C1CC1 (mixture of isomers) [13-005] | 5 (Herbicidal ratio of 90% or more (almost completely withered)) | 0 (Herbicidal ratio of 5% or lower (almost no effect)) | 0 (Herbicidal ratio of 5% or lower (almost no effect)) | 0 (Herbicidal ratio of 5% or lower (almost no effect)) | 5 (Herbicidal ratio of 90% or more (almost completely withered)) | 0 (Herbicidal ratio of 5% or lower (almost no effect)) | 0 (Herbicidal ratio of 5% or lower (almost no effect)) | 5 (Herbicidal ratio of 90% or more (almost completely withered)) | 5 (Herbicidal ratio of 90% or more (almost completely withered)) | 2 (Herbicidal ratio of 20% or higher and lower than 40%) | 5 (Herbicidal ratio of 90% or more (almost completely withered)) | – | – | 1 (Herbicidal ratio of 5% or higher and lower than 20%) | 0 (Herbicidal ratio of 5% or lower (almost no effect)) | 0 (Herbicidal ratio of 5% or lower (almost no effect)) | 0 (Herbicidal ratio of 5% or lower (almost no effect)) | 0 (Herbicidal ratio of 5% or lower (almost no effect)) | – |
| CON=C(C)CC1CC(OC(=O)C(C)(C)C)=C(c2c(C)cc(C)cc2C)C1=O (stereo not shown) [1-004, 2-mesityl-4-{2-(methoxyimino)propyl}-3-oxocyclopent-1-en-1-yl pivalate] | 5 (Herbicidal ratio of 90% or more (almost completely withered)) | 4 (Herbicidal ratio of 70% or higher and lower than 90%) | 3 (Herbicidal ratio of 40% or higher and lower than 70%) | 4 (Herbicidal ratio of 70% or higher and lower than 90%) | 5 (Herbicidal ratio of 90% or more (almost completely withered)) | – | 4 (Herbicidal ratio of 70% or higher and lower than 90%) | – | – | 4 (Herbicidal ratio of 70% or higher and lower than 90%) | 5 (Herbicidal ratio of 90% or more (almost completely withered)) | 5 (Herbicidal ratio of 90% or more (almost completely withered)) | 5 (Herbicidal ratio of 90% or more (almost completely withered)) | – | – | – | – | – | H (Echinochloa crus-galli var. crus-galli) herbicidal effect grade [2, 17]: 5 (Herbicidal ratio of 90% or more (almost completely withered)); g (rapeseed) effect on crop grade [3, 17]: 4 (Herbicidal ratio of 70% or higher and lower than 90%); N (Amaranthus retroflexus) herbicidal effect grade [4, 17]: 5 (Herbicidal ratio of 90% or more (almost completely withered)); Q (Galium spurium) herbicidal effect grade [9, 17]: 0 (Herbicidal ratio of 5% or lower (almost no effect)); c (corn) effect on crop grade [12, 17]: 4 (Herbicidal ratio of 70% or higher and lower than 90%) |
